Results reported in patent US8211919B2, “Amide derivatives as rock inhibitors” (Astellas Pharma Inc., priority 2005, dated 2012).
Where a name gives a salt, the structure may show the parent alone.

Assays:
[1] = tested on: Male Wistar rats; assay: Inhibitory effects on phenylephrine-induced elevation of urethral pressure; assay type: in vivo, rat; details: i.v.; phenylephrine 30 ug/kg i.v.
Description: To evaluate the usefulness of the compounds of the present invention for urinary dysfunction associated with benign prostatic hyperplasia, we investigated the inhibitory effects of the intravenous administration of the compounds on phenylephrine-induced elevation of the urethral pressure in rats.
Male Wistar rats were anesthetized with urethane (SIGMA, USA). After midline abdominal incision, catheter to measure the urethral pressure (3.5 Fr, Millar, USA) was inserted into the urethra from top of the bladder. After confirming the Phenylephrine (30 ug/kg i.v.)-induced elevation of the urethral pressure, compounds were administered intravenously in increasing doses. Every 5 min after administration of compounds, Phenylephrine (30 ug/kg i.v.) was injected, and the inhibitory effects of compounds on phenylephrine-induced elevation of urethral pressure were evaluated. Each experiment was performed in about 4 animals.

[2] = target: T1, human ROCK I (Homo sapiens, UniProt Q13464); assay: ROCK enzyme inhibition assay; assay type: biochemical
T1 construct: purchased Caruna Biosciences (sic)
Method: ROCK enzyme inhibitory activity of the compounds of the present invention has been assayed as follow. A aqueous solution of Rho kinase substrate MYTP was added to 96-well plate. Following incubation for overnight at 4° C., the plate was blocked by using blocking buffer containing BSA. To the plate was added reaction buffer containing each concentration of compound, suitable concentration of human ROCK I (Caruna Biosciences), ATP, β-glycerol phosphate, EGTA, sodium orthovanadate and DTT, and then the plate was incubated for 1 hour. After washing the plate by washing buffer, anti-phosphothreonin antibody was added to the plate, and then the plate was incubated for 1 hour. After washing the plate by washing buffer again, HRP-conjugated anti-phosphorylated protein antibody was added to the plate, and then the plate was incubated for 1 hour. After washing the plate by washing buffer again, calorimetric substrate TMB microwell peroxidase substrate was added to the plate, and then the plate was incubated for appropriate time. After incubation, H2SO4 was added to the plate to stop the reaction, and then absorbance (450 nm) was measured by using spectromether. Based on the absorbance for each compound, the data is fit using Prism software to obtain a IC50 value.

[3] = tested on: Male SD rats, intra-articular MIA in right knee; assay: Changes in hindlimb weight distribution, monosodium iodoacetate (MIA) osteoarthritis model; assay type: in vivo; details: Rattus norvegicus, 504 h; oral administration; three weeks after MIA injection; incapacitance tester
Description: As intra-articular injection of monosodium iodoacetate (MIA) induced human osteoarthritis-like histopathological changes in knee joint, this model would be very useful for the study of human osteoarthritis. Recently, it is reported the clinical scores of the joint pain were closely correrated to the grade of histological findings (J Vet Med Sci 65, 1195, 2003) and this model may be useful for estimation of therapeutic effects of pain with osteoarthritis.
Male SD rats were anesthetized with halothane (Takeda, Japan) and given single intra-articular injection of 1 mg of monosodium iodoacetate (MIA; Sigma, St. Louis, USA) through the infrapatellar ligament of the right knee. MIA was dissolved with physiologic saline and administered in a volume of 50 ul using a 27-gauge, 0.5-inch needle. Three weeks after the injection, hindlimb weight distribution was determined using an incapacitance tester (Linton Instrumentation, Norfork, UK). Rats were allowed to acclimate to the testing apparatus and when stationary, readings were taken over a 5 s period. […] Each group in each experiment were performed in about 8 animals.

[4] = tested on: Male Wistar rats; assay: Effects on hindlimb blood flow (laser Doppler); assay type: in vivo, rat; details: 10 mg/kg p.o.
Description: As one of the study to clarify the usefulness of the compounds of the present invention for peripheral arterial disease, we conducted a study to evaluate the effects of the compounds on hindlimb blood flow in rats.
Male Wistar rats were anesthetized by intraperitoneal pentobarbital injection (Kanto chemical, Japan) after oral administration of compounds. Rats were placed on a heating plate for subsequent hindlimb blood flow analysis. We measured hindlimb blood flow using a laser Doppler blood flow meter (PeriScan System, Stockholm, Sweden). After the laser Doppler images were recorded, the average perfusion values of both limbs were calculated, and evaluated the effects of compounds on hindlimb blood flow. Each experiment was performed in about 4 animals.

[5] = tested on: Female SD rats, bradykinin injected into knee joint cavity; assay: Pain alleviation effect on bradykinin induced joint pain model; assay type: in vivo, rat
Method: Bradykinin is known to be one of the important pain-related mediators in various pain and especially, sodium hyaluronate which is useful for pain in osteoarthritis is reported to be effective in bradykinin-induced joint pain model. Therefore, we examined effects of compounds in the model.
The making of the joint pain model and evaluation of a level of pain was conducted essentially based on the method described in Folia pharmacol. japon., 92, 17-27 (1988). Female SD rats (6-7 weeks old, Charles River Japan, Inc.) were anesthetized with halothane (Wako). Compound of the above Example were administrated orally to the rat by using oral sonde for rat. 60 min after administration of the compound, saline solution of bradykinin was injected into knee joint cavity of hind limb of rat (3 uM/site/50 ul), and then the response to pain of the rat after administration of bradykinin was observed. Level of pain was scored as five grade point (0-4) as follow: 0: no lameness to lameness for 10 seconds; 1: lameness for 10 to 30 seconds; 2: lift of the limb within 10 seconds or lameness for 31 or more seconds; 3: three-legged gait within 10 seconds followed by lameness; 4: three-legged gait for 10 or more seconds followed by lameness. About 10 rat models were used in each experimental group. It was confirmed that administration of bradykinin leads to response to pain scored as about 3.

T1 sequence (Q13464 whole entry): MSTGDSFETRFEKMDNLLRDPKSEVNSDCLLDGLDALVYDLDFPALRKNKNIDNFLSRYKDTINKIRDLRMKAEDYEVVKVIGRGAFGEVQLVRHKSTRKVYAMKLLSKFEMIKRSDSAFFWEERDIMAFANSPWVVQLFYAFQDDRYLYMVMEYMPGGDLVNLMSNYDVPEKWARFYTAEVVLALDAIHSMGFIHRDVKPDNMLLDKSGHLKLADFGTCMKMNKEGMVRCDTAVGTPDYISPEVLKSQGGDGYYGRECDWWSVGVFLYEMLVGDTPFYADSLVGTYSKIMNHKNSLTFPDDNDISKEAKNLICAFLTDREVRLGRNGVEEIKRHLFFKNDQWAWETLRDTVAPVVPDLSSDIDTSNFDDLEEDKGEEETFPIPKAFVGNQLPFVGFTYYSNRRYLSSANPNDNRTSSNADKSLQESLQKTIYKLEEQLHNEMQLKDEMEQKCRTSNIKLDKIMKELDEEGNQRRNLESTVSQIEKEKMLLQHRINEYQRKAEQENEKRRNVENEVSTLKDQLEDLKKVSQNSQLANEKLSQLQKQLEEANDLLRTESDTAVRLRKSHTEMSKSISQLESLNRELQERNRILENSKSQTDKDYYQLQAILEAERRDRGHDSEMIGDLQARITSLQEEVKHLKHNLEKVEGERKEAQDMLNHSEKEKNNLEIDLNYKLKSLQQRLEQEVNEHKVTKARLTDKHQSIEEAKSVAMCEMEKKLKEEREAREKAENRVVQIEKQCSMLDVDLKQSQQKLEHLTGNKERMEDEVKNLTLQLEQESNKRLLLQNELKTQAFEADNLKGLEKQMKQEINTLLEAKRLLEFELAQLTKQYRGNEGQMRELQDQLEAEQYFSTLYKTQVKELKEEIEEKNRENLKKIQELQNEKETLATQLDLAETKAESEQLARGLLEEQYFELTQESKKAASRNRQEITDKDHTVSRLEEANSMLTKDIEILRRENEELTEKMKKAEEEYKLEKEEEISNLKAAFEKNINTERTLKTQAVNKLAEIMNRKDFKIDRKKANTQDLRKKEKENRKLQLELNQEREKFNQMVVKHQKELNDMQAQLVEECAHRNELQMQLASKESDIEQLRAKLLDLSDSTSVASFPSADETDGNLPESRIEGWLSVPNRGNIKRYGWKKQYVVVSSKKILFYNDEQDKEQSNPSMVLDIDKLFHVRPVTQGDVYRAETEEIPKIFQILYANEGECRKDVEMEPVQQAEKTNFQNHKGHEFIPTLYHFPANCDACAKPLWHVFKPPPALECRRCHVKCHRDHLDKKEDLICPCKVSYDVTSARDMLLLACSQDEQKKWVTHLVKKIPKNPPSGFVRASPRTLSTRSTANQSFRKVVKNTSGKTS

N[C@H](C(=O)Nc1ccc(-c2ccncc2)cc1)c1ccccc1 [Example 109, (2S)-2-amino-2-phenyl-N-[4-(4-pyridinyl)phenyl]acetamide]
Inhibition of elevation in urethral pressure ED30 [1]: <1 mg/kg
IC50 [2]: 0.012 µM

Nc1nccc(-c2ccc3c(c2)CCN3C(=O)[C@@H](N)Cc2ccccc2)n1 [Example 151, 4-{1-[(2S)-2-amino-3-phenylpropanoyl]-2,3-dihydro-1H-indol-5-yl}pyrimidin-2-amine]
Inhibition of elevation in urethral pressure ED30 [1]: <1 mg/kg
IC50 [2]: 0.086 µM

O=C(Nc1ccc(-c2ccncc2)cc1)C(c1ccccc1)N1CCOCC1 (centres unmarked) [Example 119, 2-morpholin-4-yl-2-phenyl-N-[4-(4-pyridinyl)phenyl]acetamide]
ED50 [3]: < 3 mg/kg
IC50 [2]: 0.212 µM

Nc1nccc(-c2ccc(NC(=O)[C@H](N)c3ccccc3)cc2)n1 [Example 154, (2R)-2-amino-N-[4-(2-aminopyrimidin-4-yl)phenyl]-2-phenylacetamide]
Inhibition of elevation in urethral pressure ED30 [1]: <1 mg/kg
% of increase of blood flow [4]: >130%
ED50 [3]: < 3 mg/kg
IC50 [2]: 0.042 µM

Nc1nccc(-c2ccc(NC(=O)[C@H](N)c3cccs3)cc2)n1 [Example 155, (2S)-2-amino-N-[4-(2-aminopyrimidin-4-yl)phenyl]-2-(2-thienyl)acetamide]
IC50 [2]: 0.072 µM

O=C(NCc1ccccc1)Nc1ccc(-c2ccncc2)cc1 [Example 1, 1-benzyl-3-[4-(4-pyridinyl)phenyl]urea]
IC50 [2]: 0.342 µM

N[C@H](Cc1cccc(F)c1)C(=O)Nc1ccc(-c2ccncc2)cc1 [Example 86, 3-fluoro-N-[4-(4-pyridinyl)phenyl]-D-phenylalaninamide]
% of increase of blood flow [4]: >130%
IC50 [2]: 0.005 µM

O=C(Nc1ccc(-c2ccncc2)cc1)N[C@@H](CO)Cc1ccccc1 [Example 73, 1-[(1R)-1-benzyl-2-hydroxyethyl]-3-[4-(4-pyridinyl)phenyl]urea]
IC50 [2]: 0.084 µM

O=C(Nc1ccc(-c2ccncc2)cc1)N[C@H](CO)c1ccccc1 [Example 4, 1-[(1S)-2-hydroxy-1-phenylethyl]-3-[4-(4-pyridinyl)phenyl]urea]
% of increase of blood flow [4]: >130%
ED50 [3]: < 3 mg/kg
IC50 [2]: 0.122 µM

CN[C@H](Cc1ccccc1)C(=O)Nc1ccc(-c2ccncc2)cc1 [Example 98, N-alpha-methyl-N-[4-(4-pyridinyl)phenyl]-D-phenylalaninamide]
% of increase of blood flow [4]: >130%
ED50 [3]: < 3 mg/kg
IC50 [2]: 0.021 µM

N[C@H](Cc1ccccc1)C(=O)Nc1ccc(-c2ccncc2)cc1 [Example 54, (2R)-2-amino-3-phenyl-N-[4-(4-pyridinyl)phenyl]propanamide]
% of increase of blood flow [4]: >130%
ED50 [3]: < 3 mg/kg
IC50 [2]: 0.01 µM

N[C@@H](Cc1ccccc1)C(=O)Nc1ccc(-c2ccncc2)cc1 [Example 53, (2S)-2-amino-3-phenyl-N-[4-(4-pyridinyl)phenyl]propanamide dihydrochloride]
IC50 [2]: 0.018 µM

N[C@@H](Cc1ccccc1)C(=O)N1CCc2cc(-c3ccncc3)ccc21 [Example 58, (2S)-1-oxo-3-phenyl-1-[5-(4-pyridinyl)-2,3-dihydro-1H-indol-1-yl]-2-propanamine]
ED50 [3]: < 3 mg/kg
IC50 [2]: 0.053 µM

O=C(Nc1ccc(-c2ccncc2)cc1)N[C@H](CO)c1cccs1 [Example 67, 1-[(1R)-2-hydroxy-1-(2-thienyl)ethyl]-3-[4-(4-pyridinyl)phenyl]urea]
% of increase of blood flow [4]: >130%
ED50 [3]: < 3 mg/kg
IC50 [2]: 0.112 µM

Cl.O=C(CNc1ccccc1)Nc1ccc(-c2ccncc2)cc1 [Example 26, 2-anilino-N-[4-(4-pyridinyl)phenyl]acetamide hydrochloride]
pain score ([5]; 32 mg/kg orally, 60 min before bradykinin, grade 0-4, vehicle 2.7): 1.4
bradykinin-induced pain responses ([5]; oral administration, dose dependence): dose dependently improved
IC50 [2]: 0.077 µM

C[C@@H](NC(=O)Nc1ccc(-c2ccncc2)cc1)c1ccccc1 [Example 3, 1-[(1R)-1-phenylethyl]-3-[4-(4-pyridinyl)phenyl]urea]
IC50 [2]: 0.24 µM

O=C(Nc1ccc(-c2ccncc2)cc1)N[C@H](CO)c1ccccc1C(F)(F)F [Example 72, 1-{(1S)-2-hydroxy-1-[2-(trifluoromethyl)phenyl]ethyl}-3-[4-(4-pyridinyl)phenyl]urea]
IC50 [2]: 0.025 µM

N[C@@H](C(=O)Nc1ccc(-c2ccncc2)cc1)c1ccccc1 [Example 108, (2R)-2-amino-2-phenyl-N-[4-(4-pyridinyl)phenyl]acetamide]
% of increase of blood flow [4]: >130%
ED50 [3]: < 3 mg/kg
IC50 [2]: 0.014 µM
